Laboratory results reported in ChEMBL document CHEMBL6182937, “Design, Synthesis, and Anti-ischemic Stroke Activity Evaluation of Novel GSNOR Inhibitors” (J Med Chem, 2025).
pIC50: −log10 of the molar value. Active and inactive are the calls of the source. No cut-off for these calls is given here.

Key:
Homo sapiens = organism: Homo sapiens; assay: Inhibition of GSNOR (unknown origin) at 1 uM in presence of NADH incubated for 10 mins by microplate reader analysis relative to control
[1] = Inhibition of GSNOR (unknown origin) in presence of NADH incubated for 10 mins by microplate reader analysis; set-up: species or system Homo sapiens
[2] = Cmax in Sprague-Dawley rat at 10 mg/kg, iv by LC-MS/MS analysis; type: ADME, organism-based; conditions: in vivo
Rattus norvegicus [3] = assay: Neuroprotective activity against tMCAO- induced brain injury in Sprague-Dawley rat model assessed as reduction in neurological score at 10 mg/kg, iv measured up to 24 hrs Longa scale analysis; type: functional, organism-based
Rattus norvegicus [4] = assay: Neuroprotective activity against tMCAO- induced brain injury in Sprague-Dawley rat model assessed as […] at 5 mg/kg, iv measured up to 24 hrs; type: functional, organism-based
[5] = Oral bioavailability in male C57BL/6 mouse at 10 mg/kg by LC-MS/MS analysis; type: ADME, organism-based; conditions: in vivo
[6] = Half life in male C57BL/6 mouse at 10 mg/kg, po by LC-MS/MS analysis; type: ADME, organism-based; conditions: in vivo
[7] = Clearance in Sprague-Dawley rat at 10 mg/kg, iv by LC-MS/MS analysis; type: ADME, organism-based; conditions: in vivo
[8] = Half life in male C57BL/6 mouse at 2 mg/kg, iv by LC-MS/MS analysis; type: ADME, organism-based; conditions: in vivo
SH-SY5Y [9] = assay: Cytotoxicity against human SH-SY5Y cells up to 40 uM incubated for 24 hrs by CCK-8 assay; type: functional, cell-based
Rattus norvegicus [10] = assay: Neuroprotective activity against tMCAO- induced brain injury in Sprague-Dawley rat model assessed as reduction in neurological score at 5 mg/kg, iv measured up to 24 hrs Longa scale analysis; type: functional, organism-based
Rattus norvegicus [11] = assay: Neuroprotective activity against tMCAO- induced brain injury in Sprague-Dawley rat model assessed as reduction in infarct volume at 5 mg/kg, iv measured up to 24 hrs by TTC staining based analysis (reference value: 36.35 +/- 4.05%); type: functional; set-up: scale not given: the % may be the effect or the level left
SH-SY5Y [12] = assay: Neuroprotective activity against OGD/R-induced human […] cell injury model assessed as increase in cell viability at 10 uM measured for 24 hrs by CCK-8 assay; type: functional, cell-based
[13] = AUC (0 to t) in Sprague-Dawley rat at 10 mg/kg, iv by LC-MS/MS analysis; type: ADME, organism-based; conditions: in vivo
Rattus norvegicus [14] = assay: Neuroprotective activity against tMCAO- induced brain injury in Sprague-Dawley rat model assessed as upregulation of clstn1 level in brain at 5 mg/kg, iv measured after 24 hrs by LC-MS/MS analysis; type: functional, organism-based
[15] = Stability in rat plasma assessed as half life at 1 uM incubated up to 120 mins by LC-MS/MS analysis; type: ADME, cell-free
[16] = Tmax in Sprague-Dawley rat at 10 mg/kg, iv by LC-MS/MS analysis; type: ADME, organism-based; conditions: in vivo
[17] = Metabolic stability in rat liver microsomes assessed as half life preincubated for 5 mins followed by NADPH addition and measured up to 60 mins by LC-MS/MS analysis; type: ADME, Microsome; conditions: time < 65 min
SH-SY5Y [18] = assay: Neuroprotective activity against OGD/R-induced human […] cell injury model assessed as cell survival measured for 24 hrs by CCK-8 assay; type: functional, cell-based; conditions: dose 1-10 µM
[19] = Permeability of compound across apical to basal side in human Caco-2 cells at 10 uM incubated for 120 mins by LC-MS/MS analysis; type: ADME, cell-based; conditions: caco-2, 2 h
[20] = Metabolic stability in rat liver microsomes assessed as intrinsic clearance preincubated for 5 mins followed by NADPH addition and measured up to 60 mins by LC-MS/MS analysis; type: ADME, Microsome; conditions: time < 65 min, read-out: CLH
[21] = MRT (0 to t) in Sprague-Dawley rat at 10 mg/kg, iv by LC-MS/MS analysis; type: ADME, organism-based; conditions: in vivo
[22] = MRT (0 to t) in male C57BL/6 mouse at 10 mg/kg, po by LC-MS/MS analysis; type: ADME, organism-based; conditions: in vivo
[23] = MRT (0 to t) in male C57BL/6 mouse at 2 mg/kg, iv by LC-MS/MS analysis; type: ADME, organism-based; conditions: in vivo
Rattus norvegicus [24] = assay: Neuroprotective activity against tMCAO- induced brain injury in Sprague-Dawley rat model assessed as reduction in infarct volume at 10 mg/kg, iv measured up to 24 hrs by TTC staining based analysis (reference value: 36.35 +/- 4.05%); type: functional; set-up: scale not given: the % may be the effect or the level left
[25] = Half life in Sprague-Dawley rat at 10 mg/kg, iv by LC-MS/MS analysis; type: ADME, organism-based; conditions: in vivo

CC(C)Oc1cc(-n2c(-c3ccc(-n4ccnc4)cc3)cc3ccc(C(=O)O)cc32)ccc1C(N)=O
inhibition (Homo sapiens): 92.3%
pIC50 [1]: 7.23

Cc1cc(C(N)=O)ccc1-n1c(-c2ccc(-c3ccc(=O)[nH]c3)cc2)cc2ccc(C(=O)O)cc21
inhibition (Homo sapiens): 5.7%

Cc1cc(C(N)=O)ccc1-n1c(-c2ccc(-n3ccnc3)cc2)cc2ccc(C(=O)O)cc21
inhibition (Homo sapiens): 81.2%
pIC50 [1]: 6.72

Cc1cc(C(N)=O)ccc1-n1c(-c2ccc(O)cc2)cc2ccc(C(=O)O)cc21
inhibition (Homo sapiens): 33.7%

NC(=O)c1ccc(-n2c(-c3ccc(-n4ccnc4)cc3)cc3ccc(C(=O)O)cc32)cc1Cl
inhibition (Homo sapiens): 93.3%
pIC50 [1]: 7.29

CCOc1cc(-n2c(-c3ccc(-n4ccnc4)cc3)cc3ccc(C(=O)OC)cc32)ccc1C(N)=O
Cmax [2]: 11600 ng/mL
Activity (Rattus norvegicus [3]): Active
Activity (Rattus norvegicus [4]): Active
bioavailability [5]: 11.2%
half-life [6]: 76.2 min
clearance [7]: 20.9 mL/min/kg
half-life [8]: 59.4 min
Activity (SH-SY5Y [9]): Active
Activity (Rattus norvegicus [10]): Active
Activity (Rattus norvegicus [11]): 24.39%
inhibition (Homo sapiens): 16.4%
Activity (SH-SY5Y [12]): Active
AUC(0-t) [13]: 8040 ng·h/mL
Activity (Rattus norvegicus [14]): Active
half-life at 1 µM [15]: 257 min
Tmax [16]: 4.8 min
half-life [17]: 158 min
Activity (SH-SY5Y [18]): Dose-dependent-effect
permeability [19]: Permeable
CLint scaled [20]: 15.8 mL/min/kg
MRT last [21]: 42.6 min
MRT last [22]: 1.1 h
MRT last [23]: 47.4 min
Activity (Rattus norvegicus [24]): 12.74%
half-life [25]: 36 min

NC(=O)c1ccc(-n2c(-c3ccc(-n4ccnc4)cc3)cc3ccc(C(=O)O)cc32)cc1C(F)(F)F
inhibition (Homo sapiens): 50.9%

Cc1cc(C(N)=O)ccc1-n1c(CCC(=O)O)ccc1-c1ccc(-n2ccnc2)cc1 [N6022]
Activity (Rattus norvegicus [11]): 25.26%
inhibition (Homo sapiens): 90.3%
Activity (SH-SY5Y [12]): Active
pIC50 [1]: 7.07
Activity (Rattus norvegicus [24]): 25.26%

Cc1cc(C(N)=O)ccc1-n1c(-c2ccc(N3CCOCC3)cc2)cc2ccc(C(=O)O)cc21
inhibition (Homo sapiens): -0.76%

NC(=O)c1ccc(-n2c(-c3ccc(-n4ccnc4)cc3)cc3ccc(C(=O)O)cc32)cc1O
inhibition (Homo sapiens): 97%
pIC50 [1]: 7.22

N#Cc1ccc(-n2c(-c3ccc(-n4ccnc4)cc3)cc3ccc(C(=O)O)cc32)cc1
inhibition (Homo sapiens): 22.4%

NC(=O)c1ccc(-n2c(-c3ccc(-n4ccnc4)cc3)cc3ccc(C(=O)O)cc32)cc1
inhibition (Homo sapiens): 81.7%
pIC50 [1]: 6.51

N[C@@H](CCC(=O)N[C@@H](CSN=O)C(=O)NCC(=O)O)C(=O)O [S-NITROSOGLUTATHIONE]
Activity (Rattus norvegicus [11]): 25.26%
Activity (SH-SY5Y [12]): Active

O=C(O)c1ccc2cc(-c3ccc(-n4ccnc4)cc3)n(Cc3ccc(Cl)cc3)c2c1
inhibition (Homo sapiens): 28.1%
pIC50 [1]: 6.77

NC(=O)c1ccc(-n2c(-c3ccc(-n4ccnc4)cc3)cc3ccc(C(=O)O)cc32)cn1
inhibition (Homo sapiens): 60.7%

N#Cc1cccc(Cn2c(-c3ccc(-n4ccnc4)cc3)cc3ccc(C(=O)O)cc32)c1
inhibition (Homo sapiens): 84.4%
pIC50 [1]: 6.99

CN(C)S(=O)(=O)c1ccc(Cn2c(-c3ccc(-n4ccnc4)cc3)cc3ccc(C(=O)O)cc32)cc1
inhibition (Homo sapiens): 94.3%

Cc1cc(C(N)=O)ccc1-n1c(-c2ccc(N3CCN(C)CC3)cc2)cc2ccc(C(=O)O)cc21
inhibition (Homo sapiens): -0.36%
